Reference: article PMC10510382, “Discovery of a First-in-Class Degrader for the Lipid Kinase PIKfyve” (Journal of Medicinal Chemistry, 2023)

What was measured:
von Hippel–Lindau (VHL) = molecular target: T1, von Hippel–Lindau (VHL) (Homo sapiens, UniProt P40337); experiment: VHL-dependent degradation in VCaP cells: blocked by VL285; inactive hydroxy isomer […]dN does not degrade; format: cell-based
T1 construct: with PIKfyve

PIKfyve = molecular target: T2, PIKfyve (Homo sapiens, UniProt Q9Y2I7); experiment: PROTAC degradation by immunoblot in VCaP cells (DC50), blocked by warhead […] and VL285; TMT proteomics; format: cell-based
T2 construct: with VHL
T2 sequence (Q9Y2I7 2-2098): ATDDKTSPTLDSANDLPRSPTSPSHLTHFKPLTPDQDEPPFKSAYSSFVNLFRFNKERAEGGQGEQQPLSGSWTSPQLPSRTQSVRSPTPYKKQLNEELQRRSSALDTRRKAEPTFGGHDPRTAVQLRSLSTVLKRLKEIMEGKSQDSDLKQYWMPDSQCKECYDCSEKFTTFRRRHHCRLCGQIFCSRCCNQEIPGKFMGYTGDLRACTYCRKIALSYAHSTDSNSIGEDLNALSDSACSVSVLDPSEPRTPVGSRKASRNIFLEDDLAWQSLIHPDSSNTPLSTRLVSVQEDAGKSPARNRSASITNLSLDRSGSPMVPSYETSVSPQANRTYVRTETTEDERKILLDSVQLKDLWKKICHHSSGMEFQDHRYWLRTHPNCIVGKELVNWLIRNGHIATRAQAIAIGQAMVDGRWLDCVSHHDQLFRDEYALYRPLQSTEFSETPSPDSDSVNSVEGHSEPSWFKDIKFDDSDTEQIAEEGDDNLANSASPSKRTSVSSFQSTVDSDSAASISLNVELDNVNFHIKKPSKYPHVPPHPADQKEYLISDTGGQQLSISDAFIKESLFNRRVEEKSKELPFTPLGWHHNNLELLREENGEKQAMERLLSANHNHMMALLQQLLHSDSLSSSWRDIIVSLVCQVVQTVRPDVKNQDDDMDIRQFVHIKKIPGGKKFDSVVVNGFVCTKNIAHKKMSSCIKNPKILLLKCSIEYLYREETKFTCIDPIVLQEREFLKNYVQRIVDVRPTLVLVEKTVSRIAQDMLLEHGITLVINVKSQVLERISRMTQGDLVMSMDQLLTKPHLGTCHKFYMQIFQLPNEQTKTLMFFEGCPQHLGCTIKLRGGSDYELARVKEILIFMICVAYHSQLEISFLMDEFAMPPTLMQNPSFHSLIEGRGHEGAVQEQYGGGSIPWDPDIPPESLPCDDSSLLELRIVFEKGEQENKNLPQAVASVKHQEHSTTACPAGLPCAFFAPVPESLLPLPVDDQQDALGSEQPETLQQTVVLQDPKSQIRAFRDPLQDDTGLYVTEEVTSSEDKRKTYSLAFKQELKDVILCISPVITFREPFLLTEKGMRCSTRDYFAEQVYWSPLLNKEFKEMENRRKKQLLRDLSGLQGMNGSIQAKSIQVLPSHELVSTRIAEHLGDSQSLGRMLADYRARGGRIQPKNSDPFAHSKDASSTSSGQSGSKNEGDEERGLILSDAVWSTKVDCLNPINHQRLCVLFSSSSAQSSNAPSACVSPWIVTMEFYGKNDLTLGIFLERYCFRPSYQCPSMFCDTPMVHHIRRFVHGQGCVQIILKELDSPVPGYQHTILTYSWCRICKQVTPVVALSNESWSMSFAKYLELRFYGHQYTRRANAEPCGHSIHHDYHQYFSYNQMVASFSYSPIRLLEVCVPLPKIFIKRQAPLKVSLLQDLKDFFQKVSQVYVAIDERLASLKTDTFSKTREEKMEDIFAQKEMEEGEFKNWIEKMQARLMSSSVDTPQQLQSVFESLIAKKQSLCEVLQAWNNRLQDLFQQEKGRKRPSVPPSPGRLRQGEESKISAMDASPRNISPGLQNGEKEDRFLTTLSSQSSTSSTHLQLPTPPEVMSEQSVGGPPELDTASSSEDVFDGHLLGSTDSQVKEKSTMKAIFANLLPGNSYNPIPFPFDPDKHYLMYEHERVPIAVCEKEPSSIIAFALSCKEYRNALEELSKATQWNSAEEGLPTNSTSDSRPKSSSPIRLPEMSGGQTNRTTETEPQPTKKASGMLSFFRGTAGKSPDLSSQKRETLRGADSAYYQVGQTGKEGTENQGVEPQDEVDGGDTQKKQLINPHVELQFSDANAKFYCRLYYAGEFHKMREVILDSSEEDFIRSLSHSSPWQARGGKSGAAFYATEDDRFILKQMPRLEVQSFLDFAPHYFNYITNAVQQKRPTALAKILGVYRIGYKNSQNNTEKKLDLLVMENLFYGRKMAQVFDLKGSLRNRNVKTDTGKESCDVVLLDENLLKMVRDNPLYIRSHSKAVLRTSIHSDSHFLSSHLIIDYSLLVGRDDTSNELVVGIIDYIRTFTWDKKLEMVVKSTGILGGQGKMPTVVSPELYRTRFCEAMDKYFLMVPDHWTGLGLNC

T1 sequence (P40337 whole entry): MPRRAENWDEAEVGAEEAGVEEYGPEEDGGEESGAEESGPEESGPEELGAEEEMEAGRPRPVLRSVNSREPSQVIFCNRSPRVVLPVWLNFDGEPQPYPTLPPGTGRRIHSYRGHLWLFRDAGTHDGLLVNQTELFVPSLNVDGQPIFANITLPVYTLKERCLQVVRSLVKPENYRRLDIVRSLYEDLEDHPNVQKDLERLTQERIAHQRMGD
T1 sequence (Q9Y2I7 2-2098 partner): as the sequence (Q9Y2I7 2-2098) above

- DC50 (PIKfyve): 1.48 nM
Compound: Cc1cccc(/C=N/Nc2cc(N3CCOCC3)nc(OCCc3ccc(NC(=O)CCCCC(=O)N[C@H](C(=O)N4C[C@H](O)C[C@H]4C(=O)NCc4ccc(-c5scnc5C)cc4)C(C)(C)C)cc3)n2)c1 [12d, N^1-((S)-1-((2S,4R)-4-Hydroxy-2-((4-(4-methylthiazol-5-yl)benzyl)carbamoyl)pyrrolidin-1-yl)-3,3-dimethyl-1-oxobutan-2-yl)-N^6-(4-(2-((4-(2-((E)-3-methylbenzylidene)hydrazineyl)-6-morpholinopyrimidin-2-yl)oxy)ethyl)phenyl)adipamide]
- VHL-dependent degradation in VCaP cells: blocked by VL285; inactive hydroxy isom (von Hippel–Lindau (VHL)): PIK5-12d induced PIKfyve degradation in a VHL- and proteasome-dependent manner
